The results in this text go back to patent US20250171438A1 (Agios Pharmaceuticals, Inc., priority 2022, published 2025).

The test concerns the target T1, human PAH with the R408W mutation (Homo sapiens, UniProt P00439, R408W).
T1 construct: expressed in transfected cells
T1 sequence (P00439 1-452 R408W): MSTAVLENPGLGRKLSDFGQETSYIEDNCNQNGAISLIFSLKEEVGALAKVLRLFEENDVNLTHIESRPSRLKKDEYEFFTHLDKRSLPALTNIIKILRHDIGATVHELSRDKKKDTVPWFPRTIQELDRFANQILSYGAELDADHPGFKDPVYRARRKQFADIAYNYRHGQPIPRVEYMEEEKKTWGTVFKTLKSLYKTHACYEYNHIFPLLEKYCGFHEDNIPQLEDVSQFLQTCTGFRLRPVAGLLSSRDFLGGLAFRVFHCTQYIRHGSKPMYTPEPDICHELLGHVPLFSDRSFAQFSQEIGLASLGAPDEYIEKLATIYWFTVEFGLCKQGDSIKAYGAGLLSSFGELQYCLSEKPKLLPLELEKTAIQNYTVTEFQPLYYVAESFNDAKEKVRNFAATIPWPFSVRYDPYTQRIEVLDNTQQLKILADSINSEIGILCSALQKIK
Nature of the test: Cell Based Phenylalanine Flux Assay. To be noted: A375 cells expressing human R408W PAH; 24 hrs compound incubation; 13C-Tyrosine by LC-MS; average where tested multiple times; read-out: AC50.

Usually AC50 stands for the midpoint of the concentration-response curve, whichever way the signal moves.

`CC(C)(O)/C=C/c1nc(C(F)(F)F)c(C(=O)N2CCc3[nH]cnc3[C@H]2c2nc3ccccc3s2)o1` [Example 1569]: the AC50 is less than 500 nM.
The same measure for `CC(C)(O)/C=C/c1nc(C(F)(F)F)c(C(=O)N2CCc3[nH]cnc3[C@@H]2c2nc3ccccc3s2)o1` [Example 1570, (R,E)-(4-(benzo[d]thiazol-2-yl)-6,7-dihydro-1H-imidazo[4,5-c]pyridin-5(4H)-yl)(2-(3-hydroxy-3-methylbut-1-en-1-yl)-4-(trifluoromethyl)oxazol-5-yl)methanone]: less than 500 nM.
The same measure for `O=C(c1oc(C2CC2)nc1C(F)F)N1CCc2[nH]cnc2[C@H]1c1nc2c(F)cccc2s1` [Example 1571, (S)-(2-cyclopropyl-4-(difluoromethyl)oxazol-5-yl)(4-(4-fluorobenzo[d]thiazol-2-yl)-6,7-dihydro-1H-imidazo[4,5-c]pyridin-5(4H)-yl)methanone]: less than 500 nM; for `O=C(c1oc(C2CC2)nc1C(F)F)N1CCc2[nH]cnc2[C@@H]1c1nc2c(F)cccc2s1` [Example 1572, (R)-(2-cyclopropyl-4-(difluoromethyl)oxazol-5-yl)(4-(4-fluorobenzo[d]thiazol-2-yl)-6,7-dihydro-1H-imidazo[4,5-c]pyridin-5(4H)-yl)methanone]: 500 to 1000 nM.
Next, `CN1CCN(c2nc(C(F)(F)F)c(C(=O)N3CCc4[nH]cnc4[C@H]3c3nc4ccccc4s3)o2)CC1` [Example 1573]: less than 500 nM.
Regarding `CN1CCN(c2nc(C(F)(F)F)c(C(=O)N3CCc4[nH]cnc4[C@@H]3c3nc4ccccc4s3)o2)CC1` [Example 1574, (R)-(4-(benzo[d]thiazol-2-yl)-6,7-dihydro-1H-imidazo[4,5-c]pyridin-5(4H)-yl)(2-(4-methylpiperazin-1-yl)-4-(trifluoromethyl)oxazol-5-yl)methanone], the AC50 was less than 500 nM.
Next, `O=C(c1oc(CCN2CC(F)C2)nc1C(F)(F)F)N1CCc2[nH]cnc2[C@H]1c1nc2ccccc2s1` [Example 1575]: less than 500 nM; `O=C(c1oc(CCN2CC(F)C2)nc1C(F)(F)F)N1CCc2[nH]cnc2[C@@H]1c1nc2ccccc2s1` [Example 1576, (R)-(4-(benzo[d]thiazol-2-yl)-6,7-dihydro-1H-imidazo[4,5-c]pyridin-5(4H)-yl)(2-(2-(3-fluoroazetidin-1-yl)ethyl)-4-(trifluoromethyl)oxazol-5-yl)methanone]: less than 500 nM.
The same measure for `Cc1ncoc1C(=O)N1CC2(CC2)c2[nH]cnc2[C@@H]1c1nc2ccccc2s1` [Example 1578, (R)-(4′-(benzo[d]thiazol-2-yl)spiro[cyclopropane-1,7′-imidazo[4,5-c]pyridin]-5′(1′H,4′H,6′H)-yl)(4-methyloxazol-5-yl)methanone]: greater than 5000 nM.
The same measure for `O=C(c1oc(CCC2CC2)nc1C(F)(F)F)N1CCc2[nH]cnc2[C@H]1c1nc2ccccc2s1` [Example 1579]: less than 500 nM; for `O=C(c1oc(CCC2CC2)nc1C(F)(F)F)N1CCc2[nH]cnc2[C@@H]1c1nc2ccccc2s1` [Example 1580, (R)-(4-(benzo[d]thiazol-2-yl)-6,7-dihydro-1H-imidazo[4,5-c]pyridin-5(4H)-yl)(2-(2-cyclopropylethyl)-4-(trifluoromethyl)oxazol-5-yl)methanone]: less than 500 nM.
Regarding `CN(C)CCc1nc(C(F)(F)F)c(C(=O)N2CCc3[nH]cnc3[C@H]2c2nc3ccccc3s2)o1` [Example 1581], the AC50 is less than 500 nM.
Next, `CN(C)CCc1nc(C(F)(F)F)c(C(=O)N2CCc3[nH]cnc3[C@@H]2c2nc3ccccc3s2)o1` [Example 1582, (R)-(4-(benzo[d]thiazol-2-yl)-6,7-dihydro-1H-imidazo[4,5-c]pyridin-5(4H)-yl)(2-(2-(dimethylamino)ethyl)-4-(trifluoromethyl)oxazol-5-yl)methanone]: less than 500 nM; `N#Cc1ncoc1C(=O)N1CCc2[nH]cnc2[C@H]1c1nc2ccccc2s1` [Example 1583, (S)-5-(4-(benzo[d]thiazol-2-yl)-4,5,6,7-tetrahydro-1H-imidazo[4,5-c]pyridine-5-carbonyl)oxazole-4-carbonitrile]: less than 500 nM; `N#Cc1ncoc1C(=O)N1CCc2[nH]cnc2[C@@H]1c1nc2ccccc2s1` [Example 1584, (R)-5-(4-(benzo[d]thiazol-2-yl)-4,5,6,7-tetrahydro-1H-imidazo[4,5-c]pyridine-5-carbonyl)oxazole-4-carbonitrile]: greater than 5000 nM.
Regarding `O=C(c1nnc(N2CCOCC2)o1)N1CCc2[nH]cnc2[C@H]1c1nc2ccccc2s1` [Example 1585], the AC50 was 500 to 1000 nM.
Next, `O=C(c1nnc(N2CCOCC2)o1)N1CCc2[nH]cnc2[C@@H]1c1nc2ccccc2s1` [Example 1586, (R)-(4-(benzo[d]thiazol-2-yl)-6,7-dihydro-1H-imidazo[4,5-c]pyridin-5(4H)-yl)(5-morpholino-1,3,4-oxadiazol-2-yl)methanone]: 1000 to 5000 nM.
Regarding `C[C@@H]1CN(C(=O)c2nnc(-c3ccccn3)o2)[C@H](c2nc3ccccc3s2)c2nc[nH]c21` [Example 1588, ((4S,7R)-4-(benzo[d]thiazol-2-yl)-7-methyl-6,7-dihydro-1H-imidazo[4,5-c]pyridin-5(4H)-yl)(5-(pyridin-2-yl)-1,3,4-oxadiazol-2-yl)methanone], the AC50 lay within 500 to 1000 nM.
As for `C[C@H]1CN(C(=O)c2nnc(-c3ccccn3)o2)[C@H](c2nc3ccccc3s2)c2nc[nH]c21` [Example 1589, ((4S,7S)-4-(benzo[d]thiazol-2-yl)-7-methyl-6,7-dihydro-1H-imidazo[4,5-c]pyridin-5(4H)-yl)(5-(pyridin-2-yl)-1,3,4-oxadiazol-2-yl)methanone], the AC50 lay within 500 to 1000 nM.
As to `C[C@H]1CN(C(=O)c2nnc(-c3ccccn3)o2)[C@@H](c2nc3ccccc3s2)c2nc[nH]c21` [Example 1590, ((4R,7S)-4-(benzo[d]thiazol-2-yl)-7-methyl-6,7-dihydro-1H-imidazo[4,5-c]pyridin-5(4H)-yl)(5-(pyridin-2-yl)-1,3,4-oxadiazol-2-yl)methanone], the AC50 lay within 1000 to 5000 nM.
Next, `O=C(c1nnc(N2CCC(F)CC2)o1)N1CCc2[nH]cnc2[C@H]1c1nc2ccccc2s1` [Example 1591]: less than 500 nM.
The same measure for `O=C(c1nnc(N2CCC(F)CC2)o1)N1CCc2[nH]cnc2[C@@H]1c1nc2ccccc2s1` [Example 1592, (R)-(4-(benzo[d]thiazol-2-yl)-6,7-dihydro-1H-imidazo[4,5-c]pyridin-5(4H)-yl)(5-(4-fluoropiperidin-1-yl)-1,3,4-oxadiazol-2-yl)methanone]: 1000 to 5000 nM.
Next, `O=C(c1nnc(NC2CC2)o1)N1CCc2[nH]cnc2[C@H]1c1nc2ccccc2s1` [Example 1593]: 500 to 1000 nM; `O=C(c1nnc(NC2CC2)o1)N1CCc2[nH]cnc2[C@@H]1c1nc2ccccc2s1` [Example 1594, (R)-(4-(benzo[d]thiazol-2-yl)-6,7-dihydro-1H-imidazo[4,5-c]pyridin-5(4H)-yl)(5-(cyclopropylamino)-1,3,4-oxadiazol-2-yl)methanone]: 1000 to 5000 nM; `O=C(c1oc(NC2CC2)nc1C(F)(F)F)N1CCc2[nH]cnc2[C@H]1c1nc2c(F)cccc2s1` [Example 1595]: less than 500 nM.
Regarding `O=C(c1oc(NC2CC2)nc1C(F)(F)F)N1CCc2[nH]cnc2[C@@H]1c1nc2c(F)cccc2s1` [Example 1596, (R)-(2-(cyclopropylamino)-4-(trifluoromethyl)oxazol-5-yl)(4-(4-fluorobenzo[d]thiazol-2-yl)-6,7-dihydro-1H-imidazo[4,5-c]pyridin-5(4H)-yl)methanone], the AC50 was less than 500 nM.
`O=C(c1oc(N2CCOCC2)nc1C(F)(F)F)N1CCc2[nH]cnc2[C@H]1c1nc2c(F)cccc2s1` [Example 1597, (S)-(4-(4-fluorobenzo[d]thiazol-2-yl)-6,7-dihydro-1H-imidazo[4,5-c]pyridin-5(4H)-yl)(2-morpholino-4-(trifluoromethyl)oxazol-5-yl)methanone]: the AC50 was less than 500 nM.
Next, `O=C(c1oc(N2CCOCC2)nc1C(F)(F)F)N1CCc2[nH]cnc2[C@@H]1c1nc2c(F)cccc2s1` [Example 1598, (R)-(4-(4-fluorobenzo[d]thiazol-2-yl)-6,7-dihydro-1H-imidazo[4,5-c]pyridin-5(4H)-yl)(2-morpholino-4-(trifluoromethyl)oxazol-5-yl)methanone]: less than 500 nM; `CN(C)CCc1ccc2c(C(=O)N3CCc4[nH]cnc4[C@H]3c3nc4c(F)cccc4s3)cnn2c1` [Example 1599, (S)-(6-(2-(dimethylamino)ethyl)pyrazolo[1,5-a]pyridin-3-yl)(4-(4-fluorobenzo[d]thiazol-2-yl)-6,7-dihydro-1H-imidazo[4,5-c]pyridin-5(4H)-yl)methanone]: 500 to 1000 nM; `CN(C)CCc1ccc2c(C(=O)N3CCc4[nH]cnc4[C@@H]3c3nc4c(F)cccc4s3)cnn2c1` [Example 1600, (R)-(6-(2-(dimethylamino)ethyl)pyrazolo[1,5-a]pyridin-3-yl)(4-(4-fluorobenzo[d]thiazol-2-yl)-6,7-dihydro-1H-imidazo[4,5-c]pyridin-5(4H)-yl)methanone]: 1000 to 5000 nM.
The same measure for `O=C(c1nnc(-c2ccccn2)o1)N1CCc2[nH]cnc2[C@@H]1c1nc2c(F)cccc2s1` [Example 1601, (R)-(4-(4-fluorobenzo[d]thiazol-2-yl)-6,7-dihydro-1H-imidazo[4,5-c]pyridin-5(4H)-yl)(5-(pyridin-2-yl)-1,3,4-oxadiazol-2-yl)methanone]: 500 to 1000 nM.
